In publication PMC12040169 (PLOS Biology, 2025):

assay: in vitro; details: human, hela cells

With `CC1CN(C(=O)COc2ccccc2OC(=O)N(C)C)CC(C)O1` (stereo not shown) [CBK057627] the viability at 28.5 h, 10 µM was 121%.

same assay, conditions: human, hela cells, % viability

Point of comparison: `Cc1nn(C)c(Cl)c1S(=O)(=O)NCc1cc(C)n(C)n1` [CBK062154], viability at 28.5 h, 10 µM 94.5%. Against it:
- CC(=O)NCC(=O)N1CCC2(CC1)CC(=O)c1cc(Br)ccc1O2 [CBK156447] — higher, 106%
- COc1ccc(S(=O)(=O)N2CCC(C(=O)O)CC2)cc1Cl [CBK267162] — higher, 94.9%
- COCCNS(=O)(=O)c1ccc(C)cc1 [CBK002332] — lower, 82.5%
- CCc1ccc(NC(=O)CN(CCO)Cc2cc(Br)ccc2F)cc1 [CBK305968] — lower, 84.8%
- CC(/C=C/c1ccc(N(C)C)cc1)=N\NC(=N)SC1CC(=O)N(c2ccc(C(=O)O)cc2)C1=O (stereo not shown) [CBK262460] — lower, 91.6%
- O=C(NCc1nc2ccccc2[nH]1)c1cc(-c2ccc(Cl)cc2)cnc1NCc1ccc2c(c1)OCO2 [CBK106377] — higher, 102%
- Cc1cc(=O)[nH]c(SCC(=O)O)c1C#N [CBK019224] — higher, 116%
- O=C(CSc1nnc(-c2ccco2)[nH]1)c1ccc(O)cc1O [CBK264392] — higher, 108%
- N#C/C(=C\c1cccn1-c1ccc(S(N)(=O)=O)cc1)c1nc2ccccc2[nH]1 [CBK266167] — higher, 103%
- O=C(O)CCC(=O)N(Cc1ccco1)C1CC(=O)N(c2ccc(F)cc2)C1=O (stereo not shown) [CBK287059] — lower, 92.1%
- CCSc1nc(SCC)c2c3c([nH]c2n1)CCCC3 [CBK019936] — higher, 94.6%
- O=C(NCC1CCOC1)c1ccc(-c2ccccc2CO)cc1 (stereo not shown) [CBK306616] — higher, 107%
- COc1cc(-c2cncc(NCc3ccco3)n2)cc(OC)c1OC [CBK065259] — higher, 99.9%
- Nc1nnc(Sc2nc3ccccc3nc2N2CCCC2)s1 [CBK093750] — lower, 88.4%
- CC1(C)Cc2nc(-c3ccccc3)nc(SCC(=O)NCCc3ccccc3)c2CO1 [CBK267205] — lower, 86.7%
- COc1cncc(-c2cnc(N)c(NCc3cccnc3)n2)c1 [CBK063531] — higher, 110%
- Cc1ccc2c(c1)C(NC(=O)C1CC1)CC1(CCOCC1)O2 (stereo not shown) [CBK284879] — lower, 93.4%
- Cc1ccccc1-c1ccccc1CC1(C(N)=O)CCN(C(=O)c2ccccc2)CC1 [CBK285721] — lower, 89.9%
- CC(=O)Nc1ccc(NC(=O)c2cnc(-c3cccc(C)c3)c(-c3ccncc3)c2)cc1C(F)(F)F [CBK036660] — lower, 49.6%
- Oc1ccc(SCCCCN2CCCCC2)cc1 [CBK033676] — higher, 110%
- COC(=O)c1cc(C(=O)CSc2nc(N)cc(O)n2)ccc1O [CBK110407] — lower, 92.2%
- NS(=O)(=O)c1ccc(NC(=O)CN2CCN(c3cccc(C(F)(F)F)c3)CC2)cc1 [CBK266180] — higher, 105%
- Cn1c(=O)c2c(ncn2CC(=O)NCCOc2ccccc2)n(C)c1=O [CBK304654] — higher, 95.5%
- NC12CC(=O)CC(CC(c3ccccc3)C1)C2 (stereo not shown) [CBK010323C] — higher, 114%
- COc1ccc(-c2nc(NC(=O)c3cccc(S(C)(=O)=O)c3)cnc2-c2ccc(F)cc2)cc1 [CBK037110] — higher, 100%
- O=C1CCc2cc(S(=O)(=O)NC(c3ccccc3)c3ccccc3)cc3c2N1CCC3 [CBK294418] — higher, 95.6%
- O=C(Nc1nc2c(Br)cccc2s1)c1nc2ccccc2s1 [CBK287619] — lower, 92.2%
- COc1cc2c(cc1OC)C1c3ccccc3NC(c3ccccc3F)N1CC2 (stereo not shown) [CBK286311] — higher, 98.9%
- O=S(=O)(Nc1nnc(C(F)(F)F)s1)c1ccc(Oc2ccccc2)cc1 [CBK062007] — lower, 92.6%
- O=C(O)CCNS(=O)(=O)c1cccc(F)c1 [CBK267264] — higher, 115%
- CN1CCN(c2cc(NCC(c3cccnc3)N(C)C)nc3ccnn23)CC1 (stereo not shown) [CBK037157] — higher, 106%
- Cc1cc2ccccc2n1CCCNS(=O)(=O)c1ccc2[nH]c(=O)[nH]c(=O)c2c1 [CBK286362] — higher, 96%
- Cc1c(C(=O)N2CCNC(=O)C2C(C)C)cnn1-c1ccc(Br)cc1 (stereo not shown) [CBK306472] — lower, 91.5%
- O=C(CCS(=O)(=O)c1ccccc1)Nc1cncc(OC2CCNCC2)n1 [CBK028438T] — lower, 94.1%
- COc1cc(NC(=O)CSc2nncn2C)c(OC)cc1Cl [CBK270307] — lower, 86.4%
- CCCC1(C)NC(=O)N(Cc2coc(-c3cccs3)n2)C1=O (stereo not shown) [CBK305594] — higher, 100%
- CC(=O)c1ccc(OCC(=O)Nc2cnc(-c3cccc(C)c3)c(-c3ccc(N)cc3)n2)cc1 [CBK036722] — higher, 107%
- COc1ccc(CNC(=O)c2cc(S(=O)(=O)N(C)C)ccc2OC)cc1 [CBK307586] — lower, 85.1%
- CCCc1n[nH]c(C2CC2)c1C(=O)OCC [CBK115714] — higher, 115%
- Cc1noc(C)c1CCC(=O)NCc1cccc(C#N)c1 [CBK305938] — higher, 108%
- CCOC(=O)c1cnn2c(N)c(C(N)=O)nnc12 [CBK023694] — higher, 98.2%
- COc1cnc(-c2ccsc2)c(NC(=O)c2cc(C)oc2C)n1 [CBK145294] — lower, 93.2%
- CCn1c(CN2CCC(n3nc(C)cc3C)CC2)nc2ccccc21 [CBK281615] — lower, 88.5%
- CCNC(=O)CN1CCN(C(C(=O)O)c2c[nH]c3ccc(C)cc23)CC1 (stereo not shown) [CBK286694] — higher, 98%
- COc1ccccc1NC(=O)CN1CCN(CCC(=O)c2ccc(C(C)C)cc2)CC1 [CBK023925C] — higher, 95%
- CN(C)CCN(Cc1ccccc1)Cc1c(F)cccc1Cl [CBK261867] — higher, 112%
- CN1CCN(c2ccc(NC(=O)c3cc4oc(-c5ccccc5)nc4c(=O)n3C)cc2)CC1 [CBK200425] — higher, 94.9%
- Cc1cc(C2CCCCCN2C(=O)c2cc(C(C)C)on2)on1 (stereo not shown) [CBK281733] — lower, 79.7%
- CCN1CC2(CCC1=O)CCN(Cc1cccc(C(C)N(C)C)c1)CC2 (stereo not shown) [CBK307250] — higher, 116%
- NS(=O)(=O)c1ccc(CNC(=O)c2ccc(-c3ccc(OC(F)(F)F)cc3)nc2)cc1 [CBK156246] — lower, 84.1%
- O=C(Nc1ccc(Cl)cc1)NC(C(=O)O)c1ccccc1 (stereo not shown) [CBK267405] — higher, 94.9%
- N=C(N)NCc1ccc(Cl)cc1 [CBK002260] — higher, 95.7%
- c1ccc(-c2nnc(C3CCNCC3)[nH]2)nc1 [CBK288629G] — higher, 97%
- COC(=O)CCC(=O)N1CCc2c([nH]c3ccccc23)C12CCN(CCCc1ccccc1OC)C2 (stereo not shown) [CBK074952] — lower, 93.9%
- Cc1cc(C)cc(N(CC(=O)Nc2ccc(C)c(Cl)c2)S(=O)(=O)c2ccccc2)c1 [CBK264109] — higher, 98.9%
- CC(C)c1ccc(/C=C/C(=O)NC(=S)Nc2cccc(C(=O)O)c2)cc1 [CBK265024] — lower, 94.3%
- CC(=O)N1CCC(N[C@H]2C[C@@H](Cc3cc(CN4CCCCC4)on3)C2(C)C)CC1 [CBK289699] — lower, 89%
- CN(CC(=O)Nc1nnc[nH]1)S(=O)(=O)c1cc(Cl)ccc1Cl [CBK267433] — higher, 97%
- CCn1ccnc1CN1CCOC(Cc2ccccc2Cl)C1 (stereo not shown) [CBK306625] — the same, 94.5%
- COc1cccc(C2C=C(c3cccnc3)Nc3ncnn32)c1OC (stereo not shown) [CBK288062] — higher, 95.1%
- O=C1NCC2(CCN(C(=O)C3CC3)CC2)Oc2ccccc21 [CBK282918] — higher, 101%
- CCC(CC)C(=O)Nc1nc(OCCN2CCCC2=O)cnc1-c1ccc(Cl)cc1Cl [CBK145210] — lower, 92.6%
- CC(C)C1(C)N=C(c2nc3ccccc3cc2C(=O)O)NC1=O (stereo not shown) [CBK287057] — lower, 86.1%
- O=C(CSc1nc(=O)cc(O)[nH]1)N1CCc2ccccc21 [CBK269350] — lower, 88.7%
- O=C(O)c1ccc(C(=O)Nc2ccc3c(=O)n4c(nc3c2)/C(=C/c2ccccc2)CC4)cc1 [CBK013048] — lower, 82.3%
- Nc1c(N(CCO)C(=O)C2CCCC2)c(=O)[nH]c(=O)n1Cc1ccccc1 [CBK297490] — higher, 97.3%
- Fc1ccc(-c2nccnc2NCc2ccncc2)cc1Cl [CBK037422] — higher, 95.5%
- COc1cc2c(cc1OC)CN(Cc1cc(=O)[nH]c(=O)[nH]1)CC2 [CBK126393] — higher, 103%
- COc1ccccc1CC(c1ccccc1)C1CN(C)CCO1 (stereo not shown) [CBK009925C] — higher, 116%
- Cc1cnn(CCC(=O)N2CCOC(c3nc(C(C)(C)C)n[nH]3)C2)c1 (stereo not shown) [CBK305336] — higher, 110%
- Cc1cc(C)c(NS(=O)(=O)c2ccc(NC(=S)Nc3ccc(S(N)(=O)=O)cc3)cc2)c(C)c1 [CBK267005] — lower, 94.2%
- Cc1cc(=O)oc2cc(NC(=S)N3CCN(C/C=C/c4ccccc4)CC3)ccc12 [CBK267045] — lower, 92%
- C=CCNc1nccnc1-c1ccc(O)cc1 [CBK036898] — higher, 99.6%
- Cc1ccc(S(=O)(=O)Nc2ccnc(Cl)n2)cc1 [CBK067661] — lower, 90.7%
- Nc1ncc(-c2ccc(Cl)cc2)c(C2CCCN(C(=O)C3CCCC3)C2)n1 (stereo not shown) [CBK285571] — higher, 95.1%
- CN(C)c1cccc(Nc2cc(-c3ccc(CCC(=O)O)cc3)ncn2)c1 [CBK091010] — lower, 93.1%
- Fc1cc2c3c(c1)c1c(n3CCC2)CCNCC1 [CBK018406C] — higher, 105%
- CC(C)C1c2cccn2CCN1C(=O)c1cc(-c2ccccn2)n[nH]1 (stereo not shown) [CBK283223] — lower, 81.9%
- CC1(NC(=O)CC(c2ccncc2)c2c[nH]c3ccccc23)CCC1 (stereo not shown) [CBK281610] — lower, 88.8%
- CC(C)C(=O)Nc1ccc(-c2ccccc2)c2ccccc12 [CBK083731] — higher, 101%
- CNCCC(Sc1ccccn1)c1ccccc1 (stereo not shown) [CBK021724C] — lower, 93.5%
- COc1ccc(-c2[nH]c3ncccc3c2CN2CCCC2)cc1 [CBK285331] — lower, 69.4%
- COc1nccnc1N1CCN(Cc2ccc(Cl)c(Cl)c2)CC1 [CBK084209] — lower, 92.1%
- Cc1ccc(C2(CN3CCC(NC(=O)CO)CC3)CCCC2)cc1 [CBK282628] — lower, 88.5%

same assay, conditions: human, hela cells, % viability, bulk resorufin, single well

Point of comparison: `COc1ccc(N2C(=O)NC(=O)/C(=C\c3ccc(O)c(O)c3)C2=O)cc1` [CBK261436], viability at 28.5 h, 10 µM 92%. Against it:
- CN(C)C(=O)c1ccc(Cn2nc(C(=O)NC3CC3)c3ccccc32)cc1 [CBK047720] — higher, 93.1%
